Test results as given in article PMC9549030, “Structural basis for specific inhibition of the deubiquitinase UCHL1” (Nature Communications, 2022).
Where a chain is given by its changes, count along the chain named. Values joined by “and” are separate entries in the source; they are usually repeats but may differ in a detail not shown here. Identical values can stand only once. Like-named read-outs stand apart in the source and are kept apart here.

Assays:
[1] = system: T1, UCHL1 in HEK293 cells; test: Cellular Ub-probe (HA-Ub-VS) competition, inhibition of cellular UCHL1; type: cell-based, human; settings: HEK293 cells
T1 construct: Western blot analysis of endogenous UCHL1 labeled with HA-Ub-VS after treatment of HEK293 cells; endogenous in cells; host or cells: HEK293
Method: (§1) Proteins were transferred to a polyvinylidene fluoride (PVDF, only experiments in Fig. 4e and Supplementary Fig. 7e, f) or nitrocellulose (all other experiments) membrane using a Trans-Blot Turbo system (Bio-Rad, 1.3 A, 25 V, 10 min). The membranes were blocked with 5% (m/v) nonfat milk in PBS-T buffer and incubated with indicated primary antibodies (anti-UCHL1, 1:1000, Cell Signaling, D3T2E; anti-PARK7, 1:1000, Cell Signaling, D29E5; anti-Tubulin, 1:4000, Sigma, T6199; anti-Hemagglutinin, 1:1000, BioLegend, 16B12; anti-flag, 1:2000, Sigma, F3165; anti-Ubiquitin, 1:1000, Cell Signaling, P4D1; anti-Ubiquitin, 1:300, Santa Cruz, P4D1, sc-8017; anti-UCHL3, 1:1000, Proteintech, 12384-1-AP) overnight. Then the membranes were incubated with the respective secondary antibody (anti-mouse,1:5000, Sigma, NXA931; anti-rabbit, 1:5000, Sigma, GENA934) coupled to horseradish peroxidase. The chemiluminescent reaction was initiated using a Clarity Western ECL substrate (Bio-Rad) and images were taken on a ChemiDoc MP Imaging System (Bio-Rad).
(§2) The total protein concentration was adjusted to 2 mg/ml by diluting each sample with ABP lysis buffer. A final concentration of 1 µM HA-Ub-VS probe was added, followed by incubation for 30 min at 37 °C. The labeling reaction was quenched by the addition of 4x LDS sample buffer. The samples were separated via SDS-PAGE and further analyzed via western blotting as described above.

[2] = system: T2, UCHL1 in U-87 MG cells; test: as above; type: cell-based, human; settings: 1 or 24 h
T2 construct: Western blot analysis of endogenous UCHL1 labeled with HA-Ub-VS after treatment of U-87 MG cells; endogenous in cells; host or cells: U-87 MG
Method: as §1, §2

[3] = target: T3, UCHL1 (Homo sapiens, UniProt P09936); test: kobs/[I] kinetic assay; type: biochemical; parameters: kobs: unit not given here; settings: Figure 3c right panel
T3 sequence (P09936 1-223): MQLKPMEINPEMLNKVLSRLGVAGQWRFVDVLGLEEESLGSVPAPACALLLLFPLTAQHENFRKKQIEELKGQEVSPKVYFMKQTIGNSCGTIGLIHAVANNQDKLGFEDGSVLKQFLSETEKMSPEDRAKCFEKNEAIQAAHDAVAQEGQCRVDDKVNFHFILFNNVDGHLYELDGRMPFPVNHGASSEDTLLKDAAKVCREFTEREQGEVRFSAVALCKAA
Method: Reactions were performed in 384 well plates as above. Compound (5 µL of a 4x stock in reaction buffer H supplemented with 2.5 mM TCEP; varying final concentrations ranging from 78 nM to 200 µM) and Ub-Rhodamine 110 (5 µL of a 4x stock in buffer H supplemented with 2.5 mM TCEP; final concentration: 50 nM) were mixed in a 1:1 ratio.

[4] = target: T4, UCHL3 A11I (Homo sapiens, UniProt P15374, A11I); test: Intact protein mass spectrometry; type: binding; settings: enzyme 3 µM; compound 10 µM; 1 h
T4 sequence (P15374 1-230 A11I): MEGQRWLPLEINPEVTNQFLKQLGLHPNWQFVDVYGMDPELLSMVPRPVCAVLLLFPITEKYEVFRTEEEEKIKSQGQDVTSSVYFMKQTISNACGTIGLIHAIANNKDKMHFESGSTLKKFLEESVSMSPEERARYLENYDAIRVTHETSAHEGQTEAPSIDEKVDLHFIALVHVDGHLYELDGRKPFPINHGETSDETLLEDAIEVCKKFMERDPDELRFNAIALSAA
From the text: (§3) Spectra were deconvoluted with ProMass (Enovatia).

[5] = target: T5, UCHL3 L168F (Homo sapiens, UniProt P15374, L168F); test: Intact protein mass spectrometry; type: binding; settings: enzyme 3 µM; compound 10 µM; 1 h
T5 sequence (P15374 1-230 L168F): T4 sequence (P15374 1-230 A11I) with I11A, L168F
From the text: as §3

[6] = target: T3, UCHL1; test: Intact protein mass spectrometry; type: binding; settings: compound 10 µM
From the text: as §3

[7] = target: T6, UCHL3 (Homo sapiens, UniProt P15374); test: Intact protein mass spectrometry; type: binding; settings: enzyme 3 µM; compound 10 µM; 1 h
T6 sequence (P15374 1-230): T4 sequence (P15374 1-230 A11I) with I11A
From the text: as §3

[8] = target: T5, UCHL3 L168F; test: Ub-Rhodamine (Ubiquitin rhodamine cleavage) assay; type: biochemical
[9] = target: T3, UCHL1; test: Ub-Rhodamine (Ubiquitin rhodamine cleavage) assay; type: biochemical; settings: for normalized UCHL1 activity: independent experiments
[10] = 1 h, read-out: UCHL1 activity, data point mean

C#CCCCNC(=O)c1ccc(-n2cnc(NC(=O)[C@H]3CCN(C#N)C3)c2)cc1 [GK13S]
inhibition of cellular UCHL1 ([1]; 1 µM, 24 h): near complete inhibition
inhibition of cellular UCHL1 ([1]; 5 µM, 24 h): Full inhibition
inhibition of cellular UCHL1 ([1]; 1 and 5 µM, 1 h and 24 h (Supplementary Fig. 5f)): time- and concentration-dependent inhibition
inhibition of cellular UCHL1 [2]: complete inhibition
kobs ([3]; c(GK13S) 0.078125): 0.000109
kobs ([3]; c(GK13S) 0.15625): 0.000197
kobs ([3]; c(GK13S) 0.3125): 0.000258
kobs ([3]; c(GK13S) 0.625): 0.000456
kobs ([3]; c(GK13S) 1.25): 0.000882
kobs ([3]; c(GK13S) 2.5): 0.001558
protein species observed after compound treatment [4]: free UCHL3 A11I
protein species observed after compound treatment [5]: free UCHL3 L168F
stoichiometry of covalent binding to UCHL1 ([6]; UCHL1 3 µM, 16 h): bound only once
protein species observed after compound treatment ([6]; enzyme 3 µM, 1 h): UCHL1 + 1x GK13S
protein species observed after compound treatment [7]: free UCHL3
IC50 [8]: 33000 ± 11000 nM
remaining activity at 0.000610352 µM [9, 10]: 98.8%
remaining activity at 0.0012207 µM [9, 10]: 96.5%
remaining activity at 0.00244141 µM [9, 10]: 95%
remaining activity at 0.00488281 µM [9, 10]: 91.2%
remaining activity at 0.00976562 µM [9, 10]: 85.3%
remaining activity at 0.0195312 µM [9, 10]: 76.8%
remaining activity at 0.0390625 µM [9, 10]: 65.7%
remaining activity at 0.078125 µM [9, 10]: 44.1%
remaining activity at 0.15625 µM [9, 10]: 23.2%
remaining activity at 0.3125 µM [9, 10]: 8.06%
remaining activity at 0.625 µM [9, 10]: 3.5%
remaining activity at 1.25 µM [9, 10]: 2.31%
remaining activity at 2.5 µM [9, 10]: 3.03%
remaining activity at 5 µM [9, 10]: 1.18%
remaining activity at 10 µM [9, 10]: 0.488%
IC50 ([9]; 1 h preincubation, mean ± SD of independent experiments, read-out: IC50 (UCHL1)): 50 nM
IC50 ([9]; Fig. 6b, catalytic domain, 1 h preincubation with GK13S, read-out: IC50 (UCHL1)): 87 ± 8 nM
normalized UCHL1 activity ([9]; GK13S 0.610352 nM, 1 h preincubation): 0.9506 and 0.9879 and 1.014 and 0.9975 and 0.9955
normalized UCHL1 activity ([9]; GK13S 1.2207 nM, 1 h preincubation): 0.9497 and 0.9646 and 1.019 and 1.0024 and 0.9988
normalized UCHL1 activity ([9]; GK13S 2.44141 nM, 1 h preincubation): 0.9185 and 0.9495 and 1.017 and 0.9974 and 0.9924
normalized UCHL1 activity ([9]; GK13S 4.88281 nM, 1 h preincubation): 0.8798 and 0.9115 and 1.0474 and 0.9893 and 0.9704
normalized UCHL1 activity ([9]; GK13S 9.76562 nM, 1 h preincubation): 0.8185 and 0.8529 and 0.9722 and 1.013 and 0.9579
normalized UCHL1 activity ([9]; GK13S 19.5312 nM, 1 h preincubation): 0.7093 and 0.7679 and 0.9238 and 0.9667 and 0.9242
normalized UCHL1 activity ([9]; GK13S 39.0625 nM, 1 h preincubation): 0.5709 and 0.6568 and 0.8808 and 0.9371 and 0.8799
IC50 ([9]; source data Fig. 3b, 1 h preincubation, read-out: Averaged IC50s from independent experiments (single experiments)): 36 nM and 65 nM and 49 nM
